Measurements reported in patent US9492368B2, “External preparation for skin” (HAYASHIBARA CO., LTD., priority 2011, dated 2016).
Marks after values point to notes of the source that are not given here.

Key:
[1] = tested on: three-dimensional skin model (EPI-200 Kit); experiment: Residual property in three-dimensional skin model (composition of permeated solution after 24 hours); settings: 0.1% test sample in 30% ethanol
Procedure: (§1) “EPI Assay Medium”, a product name of EPI100 assay medium commercialized by Kurabo Industries Ltd., Okayama, Japan, was added to “12-WELL MULTI-MICROPLATE”, a product name of 12-well plate commercialized by Becton, Dickinson and Company, NJ, USA, in a volume of 0.33 ml/well; and “EPI-200 Kit”, a product name of a three-dimensional skin model cup, commercialized by Kanebo Cosmetics Inc., Tokyo, Japan, was transferred to each well. […] 5′-Glucosyladenosine prepared by the method in Experiment 1-2,3′-glucosyladenosine prepared by the method in Experiment 2, or adenosine was dissolved in 30% ethanol to give a final concentration of 0.1%, and 0.1 ml of each of the resulting solutions was added to each of the skin model cup. After incubating at 37° C. for 24 hours in a 5% CO2 condition, sample solutions (media in wells) were collected, subjected to ultrafiltration with “[sequence] 0.5 BIOMAX-5 MEMBRANE”, a product name of membrane commercialized by Nihon Millipore K.K., Tokyo, Japan, and diluted with the mobile phase. The diluent was subjected to HPLC under the following conditions and determined for the contents of 5′- and 3′-glucosyladenosines with an alternatively prepared standard curve.
<Conditions for HPLC Analysis>
(§2) Apparatus: an HPLC Pump, MODEL 510; a pump controller, MODEL 680; an autoinjector, MODEL 712; a detector, MODEL 2487; a data processing (quantity calculation), EMPOWER 2 SOFTWARRE, commercialized by Nihon Millipore K.K., Tokyo, Japan;
(§3) Column: “YMC-PACK ODS AQ-303”, a product name of an ODS column, ø4.6 mm×250 mm, commercialized by YMC Co., Ltd., Kyoto, Japan;
(§4) Mobile phase: {20 mM Acetic acid-ammonium acetate buffer (pH 3.5)}/(methanol)=92/8 (v/v);
Detection wavelength: 260 nm;
Injection volume: 10 μl; and
Column temperature: 40° C.

[2] = tested on: keratinocyte growth factor (KGF); experiment: Expression of keratinocyte growth factor in NHDF cells (real-time PCR); format: cell-based, human; settings: four hours, control = 1.0
Source text: The confirmation that glucosyladenosines have an action of enhancing the differentiation of keratinocytes in Experiments 5 and 7 led to an examination on keratinocyte proliferation. The effects of 5′- and […] on the expression of keratinocyte growth factor (KGF) in normal human dermal fibroblasts (NHDF) were compared. […] After the culture, the supernatant in each well was removed and added with 5′-glucosyladenosine obtained by the method in Experiment 1-2 or 3′-glucosyladenosine obtained by the method in Experiment 2, which were respectively diluted with a DMEM medium supplemented with 1 v/v % FCS to give respective concentrations of 0.15 mM and 1.5 mM. A DMEM medium supplemented with 1 v/v % FCS but with no glucosyladenosines was used as a control. The cells were cultured at 37° C. for four hours under a 5 v/v % CO2 condition, washed twice with PBS(−) after removing the culture supernatants in each well by aspiration, and fed to an RNA extraction.
“QIA shledder+RNeasy Mini Kit”, a product name of a commercialized RNA extraction kit, produced by GIAGEN Benelux B.V., Netherlands, was used to extract the total RNAs. The handlings followed the operating instructions attached to the kit. Using “Super Script VILO cDNA Synthesis Kit”, a product name of a cDNA synthesis kit, commercialized by Invitrogen Corporation, CA, USA, an RT reaction was conducted under the conditions of treating a mixture of 10.5 μl of RNA, three microliters of 5×VILO reaction mix, 1.5 μl of 10× enzyme mix (15 μl in total) at 25° C. for 10 min, 42° C. for 60 min, and then 85° C. for five minutes.
Using “LightCycler 480 SYBR Green I Master”, a product name of Roche Diagnostics K.K., Tokyo, Japan, a real-time PCR reaction was conducted by mixing 1.8 μl of water, 6.0 μl of master mix, 0.6 μl of primer L (10 μM), 0.6 μl of primer R (10 μM), and 3.0 μl of template (12.0 μl in total), and treated with 45 cycles of a successive incubation cycle at 95° C. for 10 sec, 60° C. for 10 sec, and 72° C. for 15 sec). The KGF expression level in each sample was calculated from a standard curve and calibrated with the expression level of an internal standard (18s rRNA). Relative value for each sample was determined, when the expression level of the control was regarded as 1.0, and evaluated. The primers used were of Table 9.

NHDF cells = experiment: Collagen production by NHDF cells (Sircol collagen assay); format: cell-based, human; settings: three days
Source text: For the anti-wrinkle action of glucosyladenosines, the effect of glucosyladenosines on the collagen production in the dermis was examined as follows using a normal human fetal fibroblast (NHDF) commonly used for evaluating agents for enhancing collagen production in the skin. […] Thereafter, the culture supernatant in each well was removed by aspiration, and the resulting cells were washed with phosphate buffered saline (PBS), and admixed with pepsin, commercialized by Sigma-Aldrich Co. LLC., Missouri, USA, which had been diluted with 1 M acetic acid to give a concentration of 1 mg/ml, in a volume of 250 μl/well. The resulting plates were shaken at ambient temperature for four hours, and the cells adhered to the wells were detached therefrom with a cell scraper and subjected to pipetting, followed by collecting the resulting cell suspension after the pepsin digestion into “EPPENDORF TUBE”, a product name of a 1.5 ml microtube, commercialized by Eppendorf AG, Hamburg, Germany. “Sicrol Collagen Assay Kit”, a product name of a developing color reagent for quantifying collagen, commercialized by Biocolor, CA, USA, was added to the tubes in a volume of 500 μl/tube, mixed with a vortex mixer, kneaded by allowing the tubes upside-down at an ambient temperature for exact 30 min using “RT-50”, a product name of a rotator commercialized by TAITEC Corporation, Saitama, Japan, and centrifuged (1,500 rpm) at 4° C. for 10 min to remove supernatants. The resulting sediments were admixed with 1 N NaOH in a volume of 100 μl/tube and dissolved by pipetting. The resulting solutions were all transferred to “FALCON MICROTEST™96”, a product name of a 96-well microplate commercialized by Becton, Dickinson and Company, NJ, USA, and measured for absorbance (A560-A650) on “Vmax Microplate Reader”, a product name of an absorption spectrometer commercialized by Molecular Devices Corporation, CA, USA. The collagen level in each well was determined based on a standard curve prepared by using type I collagen commercialized by KOKEN Co., Ltd., Tokyo, Japan, and the data are shown in Table 6 in parallel.

[3] = tested on: three-dimensional skin model (EPI-200 Kit); settings: human, 24 h, 0.1 %
Procedure: as §1
<Conditions for HPLC Analysis>
as §2, §3, §4
Detection wavelength: 260 nm;
Injection volume: 10 μl; and
Column temperature: 40° C.

Row | Compound | Composition of permeated solution: 3′-glucosyladenosine [1] [%] | Concentration of 3′-glucosyladenosine in permeated solution [1] [µM] | Relative expression level of KGF ([2]; 0.15 mM) | Relative expression level of KGF ([2]; 1.5 mM) | Collagen production level (NHDF cells; 5 μM in medium) | Collagen production level (NHDF cells; 10 μM in medium) | Composition of permeated solution: 5′-glucosyladenosine [1] [%] | Concentration of 5′-glucosyladenosine in permeated solution [1] [µM] | Composition of permeated solution: adenosine [3] [%] | Composition of permeated solution: hypoxanthine [3] [%] | Composition of permeated solution: inosine [3] [%] | Concentration of adenosine in permeated solution [3] [nM] | Concentration of hypoxanthine in permeated solution [3] [µM] | Concentration of inosine in permeated solution [3] [µM]
1 | Nc1ncnc2c1ncn2[C@@H]1O[C@H](CO)[C@@H](O[C@H]2O[C@H](CO)[C@@H](O)[C@H](O)[C@H]2O)[C@H]1O [3′-Glucosyladenosine, α-D-glucopyranosyl-(1→3′)-adenosine] | 27 | 25 | 2.3 | 2.7 | 3.39* μg/well | 4.37** μg/well |  |  |  |  |  |  |  | 
2 | Nc1ncnc2c1ncn2[C@@H]1O[C@H](CO[C@H]2O[C@H](CO)[C@@H](O)[C@H](O)[C@H]2O)[C@@H](O)[C@H]1O [5′-Glucosyladenosine, α-D-glucopyranosyl-(1→5′)-adenosine] |  |  | 0.9 | 1.4 | 3.53* μg/well | 4.54** μg/well | 65 | 60 |  |  |  |  |  | 
3 | Nc1ncnc2c1ncn2[C@@H]1O[C@H](CO)[C@@H](O)[C@H]1O [Adenosine, reference compound] |  |  |  |  | 2.61 μg/well | 3.02* μg/well |  |  | 0 | 77 | 23 | 0 | 187 | 55
